Experimental data reported in the supplement of paper PMC7108870.

Assays:
[1] = test system: HEK293sieSTAT3(Y640F); test: drug sensitivity score (DSS), cytotoxicity CellTox Green (DSS (dimensionless)); higher = more cytotoxic; extreme values may be limits of the assay; settings: 72 h; STAT3 variant: Y640F (constitutively active)
Procedure, shortened: (§1)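 A drug sensitivity score, based on the area of the dose-response curve, was calculated in Breeze after normalising values to negative and positive control wells. It came from HEK293 cells carrying a STAT3-dependent luciferase reporter and overexpressing wild-type or mutant STAT3, plated at 20 μl of 100,000 cells/ml onto compounds acoustically pre-plated at 5 concentrations in 10-fold dilutions in 384-well plates. Following 72 hours at 37°C and 5% CO2, CellTox Green fluorescence (485/520 nm) and then CellTiter-Glo luminescence were read on a PHERAstar FS.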

[2] = test system: HEK293sieSTAT3(wt); test: as above; settings: 72 h; STAT3 variant: wild type
Procedure, shortened: as §1

[3] = test system: HEK293sieSTAT3(Y640F); test: drug sensitivity score (DSS), viability CellTiter-Glo (DSS (dimensionless)); higher = more growth inhibition; extreme values may be limits of the assay; settings: 72 h; STAT3 variant: Y640F (constitutively active)
Procedure, shortened: as §1

[4] = test system: HEK293sieSTAT3(wt); test: as above; settings: 72 h; STAT3 variant: wild type
Procedure, shortened: as §1

O=C(c1ccc(OCCN2CCCCC2)cc1)c1c(-c2ccc(O)cc2)sc2cc(O)ccc12 [Raloxifene] (top concentration tested 10000 nM) gave a drug sensitivity score [1] of 0, a drug sensitivity score [2] of 6.26 and a drug sensitivity score [3] of 3.8. It also gave a drug sensitivity score [4] of 5.05.

In the case of CN(C)CCOc1ccc(/C(=C(/CCCl)c2ccccc2)c2ccccc2)cc1 [Toremifene] (top concentration tested 10000 nM), the drug sensitivity score [1] is reported as 2.32, the drug sensitivity score [2] is reported as 6.99 and the drug sensitivity score [3] is reported as 2.66. The drug sensitivity score [4] was 5.41.

O=C(CCCCCCC(=O)Nc1ccccc1)NO [Vorinostat] (top concentration tested 10000 nM) showed a drug sensitivity score [1] of 2.86, a drug sensitivity score [2] of 4.68 and a drug sensitivity score [3] of 10.6. For the same compound, the drug sensitivity score [4] was 9.87.

For C=CCNC1=C2C[C@@H](C)C[C@H](OC)[C@H](O)[C@@H](C)/C=C(\C)[C@H](OC(N)=O)[C@@H](OC)/C=C\C=C(/C)C(=O)NC(=CC1=O)C2=O [Tanespimycin] (top concentration tested 10000 nM), the drug sensitivity score [1] was 7.34, the drug sensitivity score [2] was 12.8 and the drug sensitivity score [3] was 22.1. It also gave a drug sensitivity score [4] of 22.6.

CC[C@H](CC#N)OC(=O)N[C@@H](C)c1cccc(NC(=O)Nc2ccc(-c3cnco3)c(OC)c2)c1 [AVN944] (top concentration tested 10000 nM) showed a drug sensitivity score [1] of 1.07, a drug sensitivity score [2] of 6.87 and a drug sensitivity score [3] of 17.1. It also gave a drug sensitivity score [4] of 20.7.

In the case of O[C@H]1CC[C@H](Nc2ncc3nc(Nc4c(F)cc(F)cc4F)n([C@H]4CCOC4)c3n2)CC1 [Tanzisertib] (top concentration tested 10000 nM), the drug sensitivity score [1] is reported as 0, the drug sensitivity score [2] is reported as 0 and the drug sensitivity score [3] is reported as 0. It also gave a drug sensitivity score [4] of 2.

Work on C[C@@H]1C[C@H]2O[C@@H]2/C=C\C=C\C(=O)Cc2c(Cl)c(O)cc(O)c2C(=O)O1 [Radicicol] (top concentration tested 10000 nM) yielded a drug sensitivity score [1] of 7.65, a drug sensitivity score [2] of 14.4 and a drug sensitivity score [3] of 19.5. For the same compound, the drug sensitivity score [4] was 25.1.

In the case of Cc1ncc(Cl)cc1NCc1ccc(C(=O)N[C@@H](CC2CCCC2)C(=O)NC2CC2)s1 (top concentration tested 5000 nM), the drug sensitivity score [1] is reported as 0.4, the drug sensitivity score [2] is reported as 0 and the drug sensitivity score [3] is reported as 4.24. The drug sensitivity score [4] was 0.63.

In the case of COc1ccc(COc2cc3oc(=O)c4cc(C(C)O)ccc4c3cc2OC)cc1 (stereo unspecified) [Palomid-529] (top concentration tested 10000 nM), the drug sensitivity score [1] is reported as 0, the drug sensitivity score [2] is reported as 3.06 and the drug sensitivity score [3] is reported as 2.18. It also gave a drug sensitivity score [4] of 2.21.

Cn1c(Nc2ccc(C(F)(F)F)cc2)nc2cc(Oc3ccnc(-c4ncc(C(F)(F)F)[nH]4)c3)ccc21 [RAF265] (top concentration tested 1000 nM) gave a drug sensitivity score [1] of 0, a drug sensitivity score [2] of 0.14 and a drug sensitivity score [3] of 0. It also gave a drug sensitivity score [4] of 0.25.

COc1ccccc1S(=O)(=O)Nc1ccc2c(c1)CN(C)C(=O)N2 [PFI-1] (top concentration tested 10000 nM) gave a drug sensitivity score [1] of 0.33, a drug sensitivity score [2] of 6.8 and a drug sensitivity score [3] of 5.5. The drug sensitivity score [4] was 5.96.

Compound COc1cc2c(NC3CCN(C(C)C)CC3)nc(C3CCCCC3)nc2cc1OCCCN1CCCC1 [UNC0638] (top concentration tested 10000 nM) has a drug sensitivity score [1] of 6.64, a drug sensitivity score [2] of 7.19 and a drug sensitivity score [3] of 5.62. For the same compound, the drug sensitivity score [4] was 7.26.

In the case of CN(C)C(=O)c1cc2cnc(Nc3ccc(N4CCNCC4)cn3)nc2n1C1CCCC1 [Ribociclib] (top concentration tested 10000 nM), the drug sensitivity score [1] is reported as 0.06, the drug sensitivity score [2] is reported as 2.66 and the drug sensitivity score [3] is reported as 4.33. For the same compound, the drug sensitivity score [4] was 5.65.

C[C@@H]1CN(Cc2ccc(F)cc2)[C@@H](C)CN1C(=O)c1cc2c(C(=O)C(=O)N(C)C)cn(C)c2cc1Cl [Talmapimod] (top concentration tested 10000 nM) gave a drug sensitivity score [1] of 0, a drug sensitivity score [2] of 0 and a drug sensitivity score [3] of 3.93. It also gave a drug sensitivity score [4] of 1.23.

In the case of CNC(=O)c1ccccc1Nc1nc(Nc2ccc3c(c2OC)CCC[C@H](N2CCN(CCO)CC2)C3)ncc1Cl (top concentration tested 5000 nM), the drug sensitivity score [1] is reported as 0, the drug sensitivity score [2] is reported as 6.35 and the drug sensitivity score [3] is reported as 7.82. The drug sensitivity score [4] was 9.3.

For NC(=O)Nc1sc(-c2ccc(F)cc2)cc1C(N)=O [TPCA-1] (top concentration tested 25000 nM), the drug sensitivity score [1] was 0.96, the drug sensitivity score [2] was 5.56 and the drug sensitivity score [3] was 5.84. For the same compound, the drug sensitivity score [4] was 7.61.

For COc1ccc(C2=N[C@@H](c3ccc(Cl)cc3)[C@@H](c3ccc(Cl)cc3)N2C(=O)N2CCNC(=O)C2)c(OC(C)C)c1 [Nutlin-3] (top concentration tested 10000 nM), the drug sensitivity score [1] was 0.07, the drug sensitivity score [2] was 0.87 and the drug sensitivity score [3] was 1.89. For the same compound, the drug sensitivity score [4] was 1.15.

In the case of Cc1cnc(-c2ccccc2C(C)C)nc1NCc1ccc(-n2ccnn2)cc1 [ML323] (top concentration tested 10000 nM), the drug sensitivity score [1] is reported as 0, the drug sensitivity score [2] is reported as 0 and the drug sensitivity score [3] is reported as 2.43. For the same compound, the drug sensitivity score [4] was 1.14.

COc1ccc(CCc2nc3cc(-c4c(C)noc4C)ccc3n2C[C@H](C)N2CCOCC2)cc1Cl [SGC-CBP30] (top concentration tested 25000 nM) gave a drug sensitivity score [1] of 0.32, a drug sensitivity score [2] of 4.24 and a drug sensitivity score [3] of 3.16. The drug sensitivity score [4] was 4.3.

Work on O=S(=O)(c1cccc2c(O)nccc12)N1CCCNCC1 [Hydroxyfasudil] (top concentration tested 37500 nM) yielded a drug sensitivity score [1] of 0, a drug sensitivity score [2] of 0 and a drug sensitivity score [3] of 0.45. It also gave a drug sensitivity score [4] of 5.7.

Compound COc1cc(O)c2c(c1)/C=C/C[C@H](O)[C@H](O)C(=O)/C=C\C[C@H](C)OC2=O [(5Z)-7-Oxozeaenol] (top concentration tested 10000 nM) has a drug sensitivity score [1] of 2.58, a drug sensitivity score [2] of 6.67 and a drug sensitivity score [3] of 3.74. The drug sensitivity score [4] was 4.51.

C[C@]12C=CC(=O)C=C1CC[C@@H]1[C@@H]2[C@@H](O)C[C@@]2(C)[C@H]1CC[C@]2(O)C(=O)CO [Prednisolone] (top concentration tested 10000 nM) gave a drug sensitivity score [1] of 0, a drug sensitivity score [2] of 0 and a drug sensitivity score [3] of 0. The drug sensitivity score [4] was 0.

N#CC1(c2ccc(NC(=O)c3cccnc3NCc3ccncc3)cc2)CCCC1 [Apatinib] (top concentration tested 10000 nM) was tested, and the drug sensitivity score [1] was 0.2, the drug sensitivity score [2] was 0.3 and the drug sensitivity score [3] was 0.11. For the same compound, the drug sensitivity score [4] was 0.

For CCCc1cc(C)[nH]c(=O)c1CNC(=O)c1cc(-c2ccnc(N3CCN(C)CC3)c2)cc2c1cnn2C(C)C [GSK343] (top concentration tested 10000 nM), the drug sensitivity score [1] was 5.89, the drug sensitivity score [2] was 6.89 and the drug sensitivity score [3] was 6.55. The drug sensitivity score [4] was 7.6.

CC(C)C[C@H](NC(=O)[C@@H](COC(C)(C)C)NC(=O)[C@H](Cc1ccc(O)cc1)NC(=O)[C@H](CO)NC(=O)[C@H](Cc1c[nH]c2ccccc12)NC(=O)[C@H](Cc1cnc[nH]1)NC(=O)[C@@H]1CCC(=O)N1)C(=O)N[C@@H](CCCNC(=N)N)C(=O)N1CCC[C@H]1C(=O)NNC(N)=O [Goserelin] (top concentration tested 10000 nM) showed a drug sensitivity score [1] of 0, a drug sensitivity score [2] of 0 and a drug sensitivity score [3] of 2.1. For the same compound, the drug sensitivity score [4] was 1.57.

For CC(=O)Nc1ccc(C(=O)Nc2ccccc2N)cc1 [Tacedinaline] (top concentration tested 1000 nM), the drug sensitivity score [1] was 0, the drug sensitivity score [2] was 0 and the drug sensitivity score [3] was 4.27. The drug sensitivity score [4] was 2.27.

For Cn1cnc2c(F)c(Nc3ccc(Br)cc3Cl)c(C(=O)NOCCO)cc21 [Selumetinib] (top concentration tested 10000 nM), the drug sensitivity score [1] was 0.68, the drug sensitivity score [2] was 0 and the drug sensitivity score [3] was 1.4. It also gave a drug sensitivity score [4] of 0.99.

With CS(=O)(=O)N1CCc2c(-c3cnc(N)nc3)nc(N3CCOCC3)nc21 (top concentration tested 10000 nM) the drug sensitivity score [1] was 0, the drug sensitivity score [2] was 5.98 and the drug sensitivity score [3] was 12. The drug sensitivity score [4] was 15.5.

Work on N[C@@H]1CCCN(c2c(/C=C3\SC(=O)NC3=O)cccc2-c2ccccc2)C1 [AZD1208] (top concentration tested 10000 nM) yielded a drug sensitivity score [1] of 0, a drug sensitivity score [2] of 0 and a drug sensitivity score [3] of 0. For the same compound, the drug sensitivity score [4] was 0.

Work on O=C(c1ccc(/C=C/c2n[nH]c3ccccc23)cc1)N1CCNCC1 [KW-2449] (top concentration tested 2500 nM) yielded a drug sensitivity score [1] of 0, a drug sensitivity score [2] of 0.89 and a drug sensitivity score [3] of 1.97. It also gave a drug sensitivity score [4] of 0.3.

Cc1cc(-c2ncc(-c3cccnc3)cc2/C=C/c2ccccc2)cnc1-c1cccnc1 [Pyridoclax] (top concentration tested 25000 nM) was tested, and the drug sensitivity score [1] was 1.38, the drug sensitivity score [2] was 5.06 and the drug sensitivity score [3] was 12.2. The drug sensitivity score [4] was 10.1.

Work on CCN(CC)CCCC(C)Nc1ccnc2cc(Cl)ccc12 (stereo unspecified) [Chloroquine] (top concentration tested 100000 nM) yielded a drug sensitivity score [1] of 8.17, a drug sensitivity score [2] of 15.8 and a drug sensitivity score [3] of 11. The drug sensitivity score [4] was 13.

In the case of OC[C@H]1O[C@@H](n2cnc3c2N=CNC[C@H]3O)C[C@@H]1O [Pentostatin] (top concentration tested 10000 nM), the drug sensitivity score [1] is reported as 0, the drug sensitivity score [2] is reported as 0 and the drug sensitivity score [3] is reported as 0.02. For the same compound, the drug sensitivity score [4] was 1.4.

With C[C@H]1C[C@@H]2[C@H]([C@@H](O)C[C@@]3(C)[C@H]2CC[C@]3(O)C(=O)CO)[C@@]2(C)C=CC(=O)C=C12 [Methylprednisolone] (top concentration tested 10000 nM) the drug sensitivity score [1] was 0, the drug sensitivity score [2] was 0 and the drug sensitivity score [3] was 2.04. For the same compound, the drug sensitivity score [4] was 1.52.
